{"source": "patent US20260256792A1", "about": "“TREATMENT OF CHRONIC SPONTANEOUS URTICARIA BY ADMINISTERING (R)-2-[3-[4-AMINO-3-(2-FLUORO-4-PHENOXY-PHENYL)PYRAZOLO[3,4-D]PYRIMIDIN-1-YL]PIPERIDINE-1-CARBONYL]-4-METHYL-4-[4-(OXETAN-3-YL)PIPERAZIN-1-YL]PENT-2-ENENITRILE” (priority 2023, published 2026)", "test_system": "moderate-to-severe chronic spontaneous urticaria (CSU)", "assay": "Phase 2 CSU study: urticaria activity score over 7 days (UAS7)", "type": "in vivo, human", "details": "ITT", "description": "The study comprises a 12 week, randomized, double-blind, placebo-controlled, multi-center, dose-ranging efficacy and safety phase, followed by a 40 week open label extension (OLE) phase (see FIG. 1). The study consists of three phases and an optional OLE phase. […] Clinically, CSU is characterized by the spontaneous and recurrent appearance of pruritic hives. The proposed primary endpoints were the UAS7 at Week 12 in EU and EU reference countries and the ISS7 in the US. Regardless of where a participant was from, all assessments were the same. The UAS7 score is a composite score containing both the HSS7 and the ISS7. This allowed a global assessment of the two key components of urticaria: hives and itch. […] The UAS is a validated PRO measure. […] The daily UAS scores range from 0 to 6 point/day. […] Patients were to complete the UAS using the e-diary. […] The following secondary endpoints were to be analyzed using the same approach as for the primary endpoint: • Change from baseline in UAS7 at Week 4 • Change from baseline in UAS7 at Week 12 (for US and US reference countries) • Change from baseline in ISS7 at Week 12 (except US and US reference countries) • Change from baseline in HSS7 at Week 12 The following responder secondary endpoints were to be analyzed using the Cochran-Mantel-Haenszel test adjusted by region: • Proportion of participants with UAS7<6 at Week 12 • Proportion of participants with UAS7=0 at Week 12 Participants who received selected prohibited medications and/or rescue medications were to be considered as non-responders for time points after the medication usage. For other participants, all available data including those collected during the off-treatment period were to be used to determine the responder/non-responder status. Missing data were to be considered as non-responders.", "data": [{"molecule": "CC(C)(C=C(C#N)C(=O)N1CCC[C@@H](n2nc(-c3ccc(Oc4ccccc4)cc3F)c3c(N)ncnc32)C1)N1CCN(C2COC2)CC1", "note": "[rilzabrutinib, (R)-2-[3-[4-amino-3-(2-fluoro-4-phenoxy-phenyl)pyrazolo[3,4-d]pyrimidin-1-yl]piperidine-1-carbonyl]-4-methyl-4-[4-(oxetan-3-yl)piperazin-1-yl]pent-2-enenitrile]", "values": [{"measurement": "Non-responder n (%), UAS7 ≤6", "setting": "400 mg BID, Week 11", "value": "28 (68.3) n (%)"}, {"measurement": "OR for rilzabrutinib vs. placebo, UAS7 = 0", "setting": "400 mg BID, Week 11", "value": 2.892}, {"measurement": "OR for rilzabrutinib vs. placebo, UAS7 ≤6", "setting": "400 mg BID, Week 11", "value": 1.991}, {"measurement": "RRD (%) for rilzabrutinib vs. placebo, UAS7 = 0", "setting": "400 mg BID, Week 11", "value": 8.2, "unit": "%"}, {"measurement": "RRD (%) for rilzabrutinib vs. placebo, UAS7 ≤6", "setting": "400 mg BID, Week 11", "value": 11.8, "unit": "%"}, {"measurement": "Responder n (%), UAS7 = 0", "setting": "400 mg BID, Week 11", "value": "6 (14.6) n (%)"}, {"measurement": "Responder n (%), UAS7 ≤6", "setting": "400 mg BID, Week 11", "value": "13 (31.7) n (%)"}, {"measurement": "Imputed non-responder n (%), UAS7 = 0", "setting": "400 mg BID, Week 12", "value": "14 (34.1) n (%)"}, {"measurement": "Imputed non-responder n (%), UAS7 ≤6", "setting": "400 mg BID, Week 12", "value": "14 (34.1) n (%)"}, {"measurement": "Non-responder n (%), UAS7 = 0", "setting": "400 mg BID, Week 12", "value": "33 (80.5) n (%)"}, {"measurement": "Non-responder n (%), UAS7 ≤6", "setting": "400 mg BID, Week 12", "value": "31 (75.6) n (%)"}, {"measurement": "OR for rilzabrutinib vs. placebo, UAS7 = 0", "setting": "400 mg BID, Week 12", "value": 1.511}, {"measurement": "OR for rilzabrutinib vs. placebo, UAS7 ≤6", "setting": "400 mg BID, Week 12", "value": 2.067}, {"measurement": "RRD (%) for rilzabrutinib vs. placebo, UAS7 ≤6", "setting": "400 mg BID, Week 12", "value": 10.0, "unit": "%"}, {"measurement": "Responder n (%), UAS7 = 0", "setting": "400 mg BID, Week 12", "value": "8 (19.5) n (%)"}, {"measurement": "Responder n (%), UAS7 ≤6", "setting": "400 mg BID, Week 12", "value": "10 (24.4) n (%)"}, {"measurement": "Imputed non-responder n (%), UAS7 = 0", "setting": "400 mg QPM, Week 1", "value": "0 n (%)"}, {"measurement": "Imputed non-responder n (%), UAS7 ≤6", "setting": "400 mg QPM, Week 1", "value": "0 n (%)"}, {"measurement": "Non-responder n (%), UAS7 = 0", "setting": "400 mg QPM, Week 1", "value": "38 (100) n (%)"}, {"measurement": "Non-responder n (%), UAS7 ≤6", "setting": "400 mg QPM, Week 1", "value": "36 (94.7) n (%)"}, {"measurement": "OR for rilzabrutinib vs. placebo, UAS7 = 0", "setting": "400 mg QPM, Week 1", "value": "0.000 (NE,"}, {"measurement": "OR for rilzabrutinib vs. placebo, UAS7 ≤6", "setting": "400 mg QPM, Week 1", "value": 1.099}, {"measurement": "RRD (%) for rilzabrutinib vs. placebo, UAS7 = 0", "setting": "400 mg QPM, Week 1", "value": "−2.6", "unit": "%"}, {"measurement": "RRD (%) for rilzabrutinib vs. placebo, UAS7 ≤6", "setting": "400 mg QPM, Week 1", "value": 0.4, "unit": "%"}, {"measurement": "Responder n (%), UAS7 = 0", "setting": "400 mg QPM, Week 1", "value": "0 n (%)"}, {"measurement": "Responder n (%), UAS7 ≤6", "setting": "400 mg QPM, Week 1", "value": "2 (5.3) n (%)"}, {"measurement": "Imputed non-responder n (%), UAS7 = 0", "setting": "400 mg QPM, Week 2", "value": "0 n (%)"}, {"measurement": "Imputed non-responder n (%), UAS7 ≤6", "setting": "400 mg QPM, Week 2", "value": "0 n (%)"}, {"measurement": "Non-responder n (%), UAS7 = 0", "setting": "400 mg QPM, Week 2", "value": "38 (100) n (%)"}, {"measurement": "Non-responder n (%), UAS7 ≤6", "setting": "400 mg QPM, Week 2", "value": "37 (97.4) n (%)"}, {"measurement": "OR for rilzabrutinib vs. placebo, UAS7 = 0", "setting": "400 mg QPM, Week 2", "value": "0.000 (NE,"}, {"measurement": "OR for rilzabrutinib vs. placebo, UAS7 ≤6", "setting": "400 mg QPM, Week 2", "value": 0.517}, {"measurement": "RRD (%) for rilzabrutinib vs. placebo, UAS7 = 0", "setting": "400 mg QPM, Week 2", "value": "−2.6", "unit": "%"}, {"measurement": "RRD (%) for rilzabrutinib vs. placebo, UAS7 ≤6", "setting": "400 mg QPM, Week 2", "value": "−2.3", "unit": "%"}, {"measurement": "Responder n (%), UAS7 = 0", "setting": "400 mg QPM, Week 2", "value": "0 n (%)"}, {"measurement": "Responder n (%), UAS7 ≤6", "setting": "400 mg QPM, Week 2", "value": "1 (2.6) n (%)"}, {"measurement": "Imputed non-responder n (%), UAS7 = 0", "setting": "400 mg QPM, Week 3", "value": "0 n (%)"}, {"measurement": "Imputed non-responder n (%), UAS7 ≤6", "setting": "400 mg QPM, Week 3", "value": "0 n (%)"}, {"measurement": "Non-responder n (%), UAS7 = 0", "setting": "400 mg QPM, Week 3", "value": "38 (100) n (%)"}, {"measurement": "Non-responder n (%), UAS7 ≤6", "setting": "400 mg QPM, Week 3", "value": "36 (94.7) n (%)"}, {"measurement": "OR for rilzabrutinib vs. placebo, UAS7 = 0", "setting": "400 mg QPM, Week 3", "value": "0.000 (NE,"}, {"measurement": "OR for rilzabrutinib vs. placebo, UAS7 ≤6", "setting": "400 mg QPM, Week 3", "value": 0.553}, {"measurement": "RRD (%) for rilzabrutinib vs. placebo, UAS7 = 0", "setting": "400 mg QPM, Week 3", "value": "−2.6", "unit": "%"}, {"measurement": "RRD (%) for rilzabrutinib vs. placebo, UAS7 ≤6", "setting": "400 mg QPM, Week 3", "value": "−3.9", "unit": "%"}, {"measurement": "Responder n (%), UAS7 = 0", "setting": "400 mg QPM, Week 3", "value": "0 n (%)"}, {"measurement": "Responder n (%), UAS7 ≤6", "setting": "400 mg QPM, Week 3", "value": "2 (5.3) n (%)"}, {"measurement": "Imputed non-responder n (%), UAS7 = 0", "setting": "400 mg QPM, Week 4", "value": "1 (2.6) n (%)"}, {"measurement": "Imputed non-responder n (%), UAS7 ≤6", "setting": "400 mg QPM, Week 4", "value": "1 (2.6) n (%)"}, {"measurement": "Non-responder n (%), UAS7 = 0", "setting": "400 mg QPM, Week 4", "value": "38 (100) n (%)"}, {"measurement": "Non-responder n (%), UAS7 ≤6", "setting": "400 mg QPM, Week 4", "value": "36 (94.7) n (%)"}, {"measurement": "OR for rilzabrutinib vs. placebo, UAS7 = 0", "setting": "400 mg QPM, Week 4", "value": "0.000 (NE,"}, {"measurement": "OR for rilzabrutinib vs. placebo, UAS7 ≤6", "setting": "400 mg QPM, Week 4", "value": 0.432}, {"measurement": "RRD (%) for rilzabrutinib vs. placebo, UAS7 = 0", "setting": "400 mg QPM, Week 4", "value": "−4.8", "unit": "%"}, {"measurement": "RRD (%) for rilzabrutinib vs. placebo, UAS7 ≤6", "setting": "400 mg QPM, Week 4", "value": "−6.0", "unit": "%"}, {"measurement": "Responder n (%), UAS7 = 0", "setting": "400 mg QPM, Week 4", "value": "0 n (%)"}, {"measurement": "Responder n (%), UAS7 ≤6", "setting": "400 mg QPM, Week 4", "value": "2 (5.3) n (%)"}, {"measurement": "Imputed non-responder n (%), UAS7 = 0", "setting": "400 mg QPM, Week 5", "value": "2 (5.3) n (%)"}, {"measurement": "Imputed non-responder n (%), UAS7 ≤6", "setting": "400 mg QPM, Week 5", "value": "2 (5.3) n (%)"}, {"measurement": "Non-responder n (%), UAS7 = 0", "setting": "400 mg QPM, Week 5", "value": "37 (97.4) n (%)"}, {"measurement": "Non-responder n (%), UAS7 ≤6", "setting": "400 mg QPM, Week 5", "value": "36 (94.7) n (%)"}, {"measurement": "OR for rilzabrutinib vs. placebo, UAS7 = 0", "setting": "400 mg QPM, Week 5", "value": 1.000}, {"measurement": "OR for rilzabrutinib vs. placebo, UAS7 ≤6", "setting": "400 mg QPM, Week 5", "value": 1.065}, {"measurement": "RRD (%) for rilzabrutinib vs. placebo, UAS7 = 0", "setting": "400 mg QPM, Week 5", "value": 0.0, "unit": "%"}, {"measurement": "RRD (%) for rilzabrutinib vs. placebo, UAS7 ≤6", "setting": "400 mg QPM, Week 5", "value": 0.3, "unit": "%"}, {"measurement": "Responder n (%), UAS7 = 0", "setting": "400 mg QPM, Week 5", "value": "1 (2.6) n (%)"}, {"measurement": "Responder n (%), UAS7 ≤6", "setting": "400 mg QPM, Week 5", "value": "2 (5.3) n (%)"}]}]}
